Assays:
[1] = target: D(1A) dopamine receptor (Homo sapiens) (UniProt P21728); details: Compound concentration 10.0 uM
[2] = target: Mitogen-activated protein kinase kinase kinase 5 (Homo sapiens) (UniProt Q99683); details: Compound concentration 1.0 uM
[3] = target: Nitric oxide synthase 3 (Rattus norvegicus) (UniProt Q62600); test: CNOS Eurofins SafetyScreen44 (BI); details: Compound concentration 10.0 uM
[4] = target: Ribosomal protein S6 kinase alpha-5 (Homo sapiens) (UniProt O75582); test: RPS6KA5 Invitrogen Lab (UK) kinase screen (BI); details: Compound concentration 1.0 uM
[5] = target: Serine/threonine-protein kinase PLK1 (Homo sapiens) (UniProt P53350); test: PLK1 DUNDEE kinase screen (BI); details: Compound concentration 10.0 uM
[6] = target: ALK tyrosine kinase receptor (Homo sapiens) (UniProt Q9UM73); test: ALK Invitrogen Lab (UK) kinase screen (BI)
[7] = target: Casein kinase 2 (Homo sapiens) (UniProt P67870+P68400+P19784+Q8NEV1); test: CK2 DUNDEE kinase screen (BI); type: protein assay; details: Compound concentration 10.0 uM
[8] = target: CDK2/Cyclin O (Homo sapiens) (UniProt P24941+P22674); test: CDK2/CYCLIN O Invitrogen Lab (UK) kinase screen (BI); type: protein-complex assay; details: Compound concentration 1.0 uM
[9] = target: Phosphodiesterase 4 (Homo sapiens) (UniProt P27815+Q08499+Q07343+Q08493); test: PDE-IV/HU Eurofins SafetyScreen44 (BI); type: protein assay; details: Compound concentration 10.0 uM
[10] = target: Epidermal growth factor receptor (Homo sapiens) (UniProt P00533)
[11] = target: Serine/threonine-protein kinase WNK3 (Homo sapiens) (UniProt Q9BYP7); test: WNK3 Invitrogen Lab (UK) kinase screen (BI); details: Compound concentration 1.0 uM
[12] = target: Myosin light chain kinase 2, skeletal/cardiac muscle (Homo sapiens) (UniProt Q9H1R3); details: Compound concentration 1.0 uM
[13] = target: Mast/stem cell growth factor receptor Kit (Homo sapiens) (UniProt P10721)
[14] = target: Tyrosine-protein kinase SYK (Homo sapiens) (UniProt P43405)
[15] = target: Calcium/calmodulin-dependent protein kinase type II subunit gamma (Homo sapiens) (UniProt Q13555); details: Compound concentration 1.0 uM
[16] = target: Calcium/calmodulin-dependent protein kinase type 1 (Homo sapiens) (UniProt Q14012); details: Compound concentration 1.0 uM
[17] = target: Tyrosine-protein kinase JAK3 (Homo sapiens) (UniProt P52333)
[18] = target: Dual specificity tyrosine-phosphorylation-regulated kinase 4 (Homo sapiens) (UniProt Q9NR20); details: Compound concentration 1.0 uM
[19] = target: AMPK alpha1/beta1/gamma2 (Homo sapiens) (UniProt Q9UGJ0+Q9Y478+Q13131); details: Compound concentration 1.0 uM
[20] = target: Proto-oncogene tyrosine-protein kinase Src (Homo sapiens) (UniProt P12931); test: SRC DUNDEE kinase screen (BI); details: Gallus gallus; Compound concentration 10.0 uM
[21] = target: Mitogen-activated protein kinase 1 (Homo sapiens) (UniProt P28482); test: MAPK2ERK2 DUNDEE kinase screen (BI); details: Mus musculus; Compound concentration 10.0 uM
[22] = target: Serine/threonine-protein kinase pim-3 (Homo sapiens) (UniProt Q86V86); test: PIM3 Invitrogen Lab (UK) kinase screen (BI); details: Compound concentration 1.0 uM
[23] = target: CDK3/Cyclin E (Homo sapiens) (UniProt P24864+Q00526); test: CDK3/CYCLIN E1 Invitrogen Lab (UK) kinase screen (BI); type: protein-complex assay; details: Compound concentration 1.0 uM
[24] = target: Muscarinic acetylcholine receptor M3 (Homo sapiens) (UniProt P20309); details: Compound concentration 10.0 uM
[25] = target: Cytoplasmic tyrosine-protein kinase BMX (Homo sapiens) (UniProt P51813); test: BMX Invitrogen Lab (UK) kinase screen (BI); details: Compound concentration 1.0 uM
[26] = target: Serine/threonine-protein kinase ICK (Homo sapiens) (UniProt Q9UPZ9); details: Compound concentration 1.0 uM
[27] = target: AMPK alpha2/beta2/gamma3 (Homo sapiens) (UniProt P54646+O43741+Q9UGI9); details: Compound concentration 1.0 uM
[28] = target: Serine/threonine-protein kinase 32B (Homo sapiens) (UniProt Q9NY57); details: Compound concentration 1.0 uM
[29] = target: Leukotriene A-4 hydrolase (Cavia porcellus) (UniProt P19602); details: Compound concentration 10.0 uM
[30] = target: Casein kinase I isoform epsilon (Homo sapiens) (UniProt P49674); test: CSNK1E Invitrogen Lab (UK) kinase screen (BI); details: Compound concentration 1.0 uM
[31] = target: Nitric oxide synthase 3 (Bos taurus) (UniProt P29473); details: Compound concentration 10.0 uM
[32] = target: Phosphatidylinositol 4,5-bisphosphate 3-kinase catalytic subunit gamma isoform (Homo sapiens) (UniProt P48736); test: PIK3CG Invitrogen Lab (UK) kinase screen (BI); details: Compound concentration 1.0 uM
[33] = target: NT-3 growth factor receptor (Homo sapiens) (UniProt Q16288); test: NTRK3 Invitrogen Lab (UK) kinase screen (BI); details: Compound concentration 1.0 uM
[34] = target: Tyrosine-protein kinase Yes (Homo sapiens) (UniProt P07947); test: YES1 Invitrogen Lab (UK) kinase screen (BI); details: Compound concentration 1.0 uM
[35] = target: Mitogen-activated protein kinase 14 (Homo sapiens) (UniProt Q16539); test: SAPK2AP38 DUNDEE kinase screen (BI); details: Compound concentration 10.0 uM
[36] = target: Dual specificity tyrosine-phosphorylation-regulated kinase 2 (Homo sapiens) (UniProt Q92630); test: DYRK2 Invitrogen Lab (UK) kinase screen (BI); details: Compound concentration 1.0 uM
[37] = target: Mitogen-activated protein kinase 3 (Homo sapiens) (UniProt P27361); details: Compound concentration 1.0 uM
[38] = target: Serine/threonine-protein kinase haspin (Homo sapiens) (UniProt Q8TF76); test: GSG2 Invitrogen Lab (UK) kinase screen (BI); details: Compound concentration 1.0 uM
[39] = target: Cyclin-dependent kinase 9 (Homo sapiens) (UniProt P50750); test: CDK9CYCLIN Invitrogen Lab (UK) kinase screen (BI); details: Compound concentration 1.0 uM
[40] = target: Serine/threonine-protein kinase PLK2 (Homo sapiens) (UniProt Q9NYY3); details: Compound concentration 1.0 uM
[41] = target: Inactive tyrosine-protein kinase PEAK1 (Homo sapiens) (UniProt Q9H792); details: Compound concentration 1.0 uM
[42] = target: Sodium-dependent dopamine transporter (Homo sapiens, UniProt Q01959); details: Compound concentration 10.0 uM

Chain of ALK tyrosine kinase receptor (Homo sapiens) (Q9UM73 19-1620 limits assumed): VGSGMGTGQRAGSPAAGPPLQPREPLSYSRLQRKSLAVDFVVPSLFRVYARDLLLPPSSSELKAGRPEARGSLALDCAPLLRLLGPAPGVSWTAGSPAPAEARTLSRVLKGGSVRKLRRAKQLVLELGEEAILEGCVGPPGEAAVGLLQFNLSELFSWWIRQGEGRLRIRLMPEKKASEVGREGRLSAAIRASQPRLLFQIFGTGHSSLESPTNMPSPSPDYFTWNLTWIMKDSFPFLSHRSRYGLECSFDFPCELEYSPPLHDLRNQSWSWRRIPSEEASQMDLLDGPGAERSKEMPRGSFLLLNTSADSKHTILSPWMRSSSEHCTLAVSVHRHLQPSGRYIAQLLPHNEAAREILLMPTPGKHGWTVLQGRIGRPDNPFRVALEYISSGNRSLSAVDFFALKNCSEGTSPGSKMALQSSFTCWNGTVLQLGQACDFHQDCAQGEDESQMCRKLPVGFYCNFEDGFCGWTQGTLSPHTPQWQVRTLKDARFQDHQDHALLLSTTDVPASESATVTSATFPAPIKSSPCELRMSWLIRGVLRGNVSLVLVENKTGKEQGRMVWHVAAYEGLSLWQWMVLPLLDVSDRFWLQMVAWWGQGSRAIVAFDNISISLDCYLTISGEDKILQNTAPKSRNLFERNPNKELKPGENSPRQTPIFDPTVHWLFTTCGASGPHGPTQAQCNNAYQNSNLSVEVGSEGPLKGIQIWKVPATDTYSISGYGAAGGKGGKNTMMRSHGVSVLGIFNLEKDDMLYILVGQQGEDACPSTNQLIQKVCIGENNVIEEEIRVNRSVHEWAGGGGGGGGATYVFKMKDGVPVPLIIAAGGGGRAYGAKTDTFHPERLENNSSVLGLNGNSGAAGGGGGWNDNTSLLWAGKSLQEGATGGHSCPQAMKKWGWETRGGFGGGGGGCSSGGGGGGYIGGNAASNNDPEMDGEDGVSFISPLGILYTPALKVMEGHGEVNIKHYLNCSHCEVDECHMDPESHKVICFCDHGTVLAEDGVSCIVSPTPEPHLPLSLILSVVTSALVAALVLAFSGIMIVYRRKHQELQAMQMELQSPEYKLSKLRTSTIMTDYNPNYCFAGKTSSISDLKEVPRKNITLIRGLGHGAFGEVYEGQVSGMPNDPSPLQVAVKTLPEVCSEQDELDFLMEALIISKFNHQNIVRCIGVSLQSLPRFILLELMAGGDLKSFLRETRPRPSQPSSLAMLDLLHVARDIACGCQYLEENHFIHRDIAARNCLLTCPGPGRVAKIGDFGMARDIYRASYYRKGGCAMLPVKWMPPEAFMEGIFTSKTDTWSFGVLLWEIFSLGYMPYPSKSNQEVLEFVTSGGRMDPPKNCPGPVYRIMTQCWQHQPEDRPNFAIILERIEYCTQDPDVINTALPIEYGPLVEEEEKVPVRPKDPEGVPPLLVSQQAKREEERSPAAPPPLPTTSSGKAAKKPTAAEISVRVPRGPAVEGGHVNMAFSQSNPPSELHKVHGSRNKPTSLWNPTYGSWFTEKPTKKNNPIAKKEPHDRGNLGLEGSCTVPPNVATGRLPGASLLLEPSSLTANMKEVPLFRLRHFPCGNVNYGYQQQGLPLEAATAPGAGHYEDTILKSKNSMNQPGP
Chain of Epidermal growth factor receptor (Homo sapiens) (P00533 whole entry): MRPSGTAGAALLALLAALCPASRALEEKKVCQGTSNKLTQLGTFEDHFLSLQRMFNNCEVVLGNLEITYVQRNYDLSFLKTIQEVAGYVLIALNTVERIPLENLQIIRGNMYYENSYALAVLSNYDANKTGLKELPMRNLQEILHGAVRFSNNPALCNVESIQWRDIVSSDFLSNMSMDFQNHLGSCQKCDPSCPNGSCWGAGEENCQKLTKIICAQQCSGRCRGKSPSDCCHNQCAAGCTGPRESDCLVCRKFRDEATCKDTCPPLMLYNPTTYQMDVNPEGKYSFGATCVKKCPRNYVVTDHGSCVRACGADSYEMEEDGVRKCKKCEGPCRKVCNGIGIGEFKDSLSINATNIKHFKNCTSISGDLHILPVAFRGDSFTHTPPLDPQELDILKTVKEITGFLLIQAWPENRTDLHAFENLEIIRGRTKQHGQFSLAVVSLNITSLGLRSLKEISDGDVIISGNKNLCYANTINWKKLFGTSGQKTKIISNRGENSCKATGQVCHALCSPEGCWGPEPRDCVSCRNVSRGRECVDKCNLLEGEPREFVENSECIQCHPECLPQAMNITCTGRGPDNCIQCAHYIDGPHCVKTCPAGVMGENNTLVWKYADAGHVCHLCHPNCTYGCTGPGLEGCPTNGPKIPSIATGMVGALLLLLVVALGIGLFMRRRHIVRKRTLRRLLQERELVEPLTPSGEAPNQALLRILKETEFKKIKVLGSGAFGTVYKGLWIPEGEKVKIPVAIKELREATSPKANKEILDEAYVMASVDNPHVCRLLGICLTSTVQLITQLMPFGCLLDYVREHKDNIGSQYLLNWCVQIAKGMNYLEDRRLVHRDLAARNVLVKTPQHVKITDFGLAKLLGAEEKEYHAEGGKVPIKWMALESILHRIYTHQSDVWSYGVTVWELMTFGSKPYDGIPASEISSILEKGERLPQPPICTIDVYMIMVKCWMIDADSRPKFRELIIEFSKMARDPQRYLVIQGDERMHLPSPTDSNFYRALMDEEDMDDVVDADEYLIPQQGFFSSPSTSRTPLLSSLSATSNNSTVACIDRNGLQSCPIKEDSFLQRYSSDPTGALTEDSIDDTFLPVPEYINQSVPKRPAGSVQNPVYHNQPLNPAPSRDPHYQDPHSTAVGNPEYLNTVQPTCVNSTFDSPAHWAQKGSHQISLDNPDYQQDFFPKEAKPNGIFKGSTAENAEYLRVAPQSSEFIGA
Chain of Tyrosine-protein kinase JAK3 (Homo sapiens) (P52333 whole entry): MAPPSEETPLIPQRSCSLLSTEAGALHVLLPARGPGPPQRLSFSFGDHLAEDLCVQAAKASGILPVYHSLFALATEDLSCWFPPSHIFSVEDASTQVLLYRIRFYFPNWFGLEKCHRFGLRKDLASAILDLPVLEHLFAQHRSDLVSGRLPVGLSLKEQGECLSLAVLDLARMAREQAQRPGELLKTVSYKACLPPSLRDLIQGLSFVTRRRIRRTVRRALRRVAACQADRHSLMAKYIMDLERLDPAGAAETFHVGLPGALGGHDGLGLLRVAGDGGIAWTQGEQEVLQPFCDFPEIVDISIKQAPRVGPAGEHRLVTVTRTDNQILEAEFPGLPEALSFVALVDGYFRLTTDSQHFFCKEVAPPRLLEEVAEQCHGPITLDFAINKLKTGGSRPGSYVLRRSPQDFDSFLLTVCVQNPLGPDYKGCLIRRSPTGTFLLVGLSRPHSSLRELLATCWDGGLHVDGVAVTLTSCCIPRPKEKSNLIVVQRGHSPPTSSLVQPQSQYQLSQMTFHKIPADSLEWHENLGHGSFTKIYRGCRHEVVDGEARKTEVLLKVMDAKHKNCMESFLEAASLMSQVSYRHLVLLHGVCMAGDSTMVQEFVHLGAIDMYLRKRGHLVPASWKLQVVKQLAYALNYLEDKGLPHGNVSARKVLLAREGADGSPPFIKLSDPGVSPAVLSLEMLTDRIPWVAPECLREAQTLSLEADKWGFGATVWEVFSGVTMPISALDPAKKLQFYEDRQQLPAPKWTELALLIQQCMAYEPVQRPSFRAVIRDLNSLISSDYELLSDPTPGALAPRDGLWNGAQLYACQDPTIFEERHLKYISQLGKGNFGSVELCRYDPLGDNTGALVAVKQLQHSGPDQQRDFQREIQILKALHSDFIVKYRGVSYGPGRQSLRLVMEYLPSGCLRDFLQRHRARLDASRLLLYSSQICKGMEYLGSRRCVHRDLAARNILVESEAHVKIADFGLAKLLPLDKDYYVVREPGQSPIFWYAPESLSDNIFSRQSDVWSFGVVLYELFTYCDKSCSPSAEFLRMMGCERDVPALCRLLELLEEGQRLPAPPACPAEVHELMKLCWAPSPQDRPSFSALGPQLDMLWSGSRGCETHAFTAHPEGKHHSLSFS
Chain of Mast/stem cell growth factor receptor Kit (Homo sapiens) (P10721 whole entry): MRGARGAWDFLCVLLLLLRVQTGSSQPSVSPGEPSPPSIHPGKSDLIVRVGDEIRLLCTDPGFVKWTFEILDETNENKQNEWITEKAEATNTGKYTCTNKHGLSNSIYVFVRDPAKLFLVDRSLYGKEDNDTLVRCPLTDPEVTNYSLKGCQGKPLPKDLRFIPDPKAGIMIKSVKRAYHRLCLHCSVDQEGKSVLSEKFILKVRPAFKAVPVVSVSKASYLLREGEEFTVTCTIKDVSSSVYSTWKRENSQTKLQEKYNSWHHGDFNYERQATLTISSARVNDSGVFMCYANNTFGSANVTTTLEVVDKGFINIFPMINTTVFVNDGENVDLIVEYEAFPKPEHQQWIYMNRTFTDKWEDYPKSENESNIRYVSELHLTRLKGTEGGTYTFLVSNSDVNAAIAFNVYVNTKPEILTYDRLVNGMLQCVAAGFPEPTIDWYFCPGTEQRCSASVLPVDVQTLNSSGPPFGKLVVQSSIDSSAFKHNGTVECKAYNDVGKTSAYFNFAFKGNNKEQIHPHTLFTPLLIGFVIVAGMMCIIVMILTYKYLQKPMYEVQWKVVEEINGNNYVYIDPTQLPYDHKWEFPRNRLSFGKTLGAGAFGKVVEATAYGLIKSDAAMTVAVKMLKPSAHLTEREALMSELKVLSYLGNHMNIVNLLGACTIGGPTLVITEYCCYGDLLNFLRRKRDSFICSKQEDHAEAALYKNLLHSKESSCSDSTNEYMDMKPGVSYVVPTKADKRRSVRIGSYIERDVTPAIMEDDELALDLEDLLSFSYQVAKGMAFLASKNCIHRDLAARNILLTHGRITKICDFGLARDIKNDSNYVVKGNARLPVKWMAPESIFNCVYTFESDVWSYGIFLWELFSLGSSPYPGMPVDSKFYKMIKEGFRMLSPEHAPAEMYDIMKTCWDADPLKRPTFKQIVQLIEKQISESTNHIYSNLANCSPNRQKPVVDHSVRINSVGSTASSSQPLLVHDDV

CCC(F)(F)c1cc(N2CCC(S(C)(=O)=O)CC2)nc2sc(C(N)=O)c(N)c12 [BI-605906]
inactive: inhibition [1] 25.7% | residual activity [2] 99% | residual activity [3] 102% | residual activity [4] 102% | residual activity [5] 86.8% | residual activity ([6]; Compound concentration 1.0 uM) 80% | residual activity ([6]; Compound concentration 10.0 uM) 74% | residual activity [7] 89.4% | residual activity [8] 81% | residual activity [9] 68% | residual activity ([10]; Compound concentration 1.0 uM) 99% | residual activity ([10]; Compound concentration 10.0 uM) 90% | residual activity [11] 102% | residual activity [12] 98% | residual activity ([13]; Compound concentration 1.0 uM) 89% | residual activity ([13]; Compound concentration 10.0 uM) 83% | residual activity ([14]; Compound concentration 1.0 uM) 94% | residual activity ([14]; Compound concentration 10.0 uM) 97% | residual activity [15] 90% | residual activity [16] 109% | residual activity ([17]; Compound concentration 1.0 uM) 92% | residual activity ([17]; Compound concentration 10.0 uM) 95% | residual activity [18] 97% | residual activity [19] 89% | residual activity [20] 73.8% | residual activity [21] 90.1% | residual activity [22] 103% | residual activity [23] 78% | inhibition [24] 21.1% | residual activity [25] 88% | residual activity [26] 96% | residual activity [27] 99% | residual activity [28] 96% | residual activity [29] 93% | residual activity [30] 75% | residual activity [31] 100% | residual activity [32] 102% | residual activity [33] 84% | residual activity [34] 74% | residual activity [35] 85.3% | residual activity [36] 62% | residual activity [37] 100% | residual activity [38] 70% | residual activity [39] 86% | residual activity [40] 96% | residual activity [41] 94% | inhibition [42] 2.35%

Reference: ChEMBL document CHEMBL4800722, “Data for DCP probe BI 605906” (2021)
